Experimental data reported in US12458630B2, “Combination therapy for cancer” (The Regents of the University of California, priority 2020, dated 2025).
“Also recorded” adds a separate entry of the source.

Assays:
[1] = tested on: Kras^G12D;Ikkα^ΔPEC mice; experiment: Autochthonous PDAC model; type: in vivo, mouse
Experimental: (§1) To evaluate the effects of MP on tumor growth in the autochthonous model, Kras^G12D;Ikkα^Δpan mice, at 4 weeks of age, were treated with vehicle or 10 mg/kg EIPA (Sigma) by intraperitoneal injection every other day for 1 month. After that, surgically removed pancreata were weighed and used for further analysis. To evaluate the effects of MP on heterotopic xenografts, female homozygous BALB/c Nu/Nu nude mice were injected subcutaneously (s.c.) in both flanks at 7 weeks of age with 10^6 parental and IKKα KO MIA PaCa-2 cells mixed at a 1:1 dilution with BD Matrigel (BD Biosciences) in a total volume of 100 μl. Mice were treated with EIPA (7.5 mg/kg) for 15 days when tumors attained an average volume of 50-100 mm^3. As a control, animals treated with vehicle (DMSO in PBS) were used. Volumes (1/2×(width^2×length)) of s.c. tumors were calculated on the basis of measurements using digital calipers after 15 days of treatment. To evaluate the combination effects of autophagy and MP inhibition on tumor growth, C57BL/6 mice were injected s.c. at 7 weeks of age with 10^7 KC6141 cells in a total volume of 100 μl. Mice were treated with vehicle, EIPA (7.5 mg/kg), MRT68921 (10 mg/kg, MCE), or EIPA and MRT68921 for 21 days when tumors attained an average volume of 100 mm^3. Tumor volumes were calculated as above.
In some embodiments, to evaluate the effects of MP on tumor growth or survival in the autochthonous model, Kras^G12D;Ikkα^ΔPEC mice, at 4 weeks of age, were treated with vehicle or 10 mg/kg EIPA (Sigma) by i.p. injection every other day for 1 month. After that, surgically removed pancreata were weighed and used for further analysis and other mice were continued to maintain for survival. To evaluate the effects of MP on heterotopic xenografts, female homozygous BALB/c Nu/Nu nude mice were injected subcutaneously (s.c.) in both flanks at 7 weeks of age with 10^6 parental and IKKα^Δ MIA PaCa-2 cells or 1334 and 1444 cells mixed at a 1:1 dilution with BD Matrigel (BD Biosciences) in a total volume of 100 μl. Mice were treated with vehicle (DMSO in PBS), EIPA (7.5 mg/kg), MRT68921 (10 mg/kg) or MRT68921 and EIPA for 15 days when tumors attained an average volume of 50-100 mm^3. Volumes (1/2×(width^2×length)) of s.c. tumors were calculated on the basis of measurements using digital calipers after 15 days of treatment. To evaluate the combination effects of autophagy and MP inhibition on tumor growth, C57BL/6 mice were injected s.c. at 7 weeks of age with 10^6 parental, Ikkα KD, Nhe1 KD or Ikkα+Nhe1 DKD KC6141 cells in a total volume of 100 μl. Mice were treated with or without vehicle, EIPA (7.5 mg/kg), MRT68921 (10 mg/kg), or EIPA and MRT68921 for 21 days when tumors attained an average volume of 50-100 mm^3. Tumor volumes were calculated as above.
Cell imaging. Immunostaining was performed as described^44. Cells were cultured on coverslips and fixed in 4% PFA for 10 min at room temperature. After washing twice in PBS, cells were incubated in PBS containing 10% FBS to block nonspecific sites of antibody adsorption. The cells were then incubated with the appropriate primary antibodies (diluted 1:100) and secondary antibodies (diluted 1:500) in PBS containing 10% FBS with or without 0.1% saponin. For cell macropinosome visualization, 24 hrs after seeding, the cells were serum starved for 18 hrs. Macropinosomes were marked using a high-molecular-mass (70 KD) TMR-Dextran (Invitrogen)-uptake assay, wherein TMR-DEX was added to serum-free medium at a final concentration of 1 mg/ml for 30 min at 37° C. At the end of the incubation period, the cells were rinsed five times in cold PBS and immediately fixed in 4% PFA. For tissue macropinosome visualization^45, fresh pancreata were cut into pieces with an approximate 5-mm cuboidal shape. A tissue section was placed in a 24-well plate and injected 150 μL of 10 mg/ml TMR-DEX solution directly into the tissue piece. Another 250 μL of diluted TMR-DEX solution were added to the well to immerse the tissue section. […]

[2] = tested on: 1305 primary human PDAC cells; experiment: Cell viability assay (CCK-8); type: cell-based; details: IKKα^low 1305 cells, 3 days
Experimental: (§2) In some embodiments, cells were plated in 96-well plates coated with or without ECM at a density of 3000 cells (MIA PaCa-2, 1444, 1305, COLO 357/FG) or 1500 cells (KC6141) per well and incubated overnight prior to treatment. EIPA (10.5 μM), IPI549 (600 nM), MBQ-167 (500 nM), MRT68921 (600 nM) or erlotinib (2 μM, Sigma), ML385 (10 μM, Sigma), HCQ (10 μM or 80 μM) or their combinations were added to the wells for 24, 72 or 96 hrs. Next, 10 μL of CCK-8 was added to each well. The optical density was read at 450 nm using a microplate reader (FilterMax F5, Molecular Devices, USA) at day 0, 1, 2, 3, and 4. For glutamine-deprivation assays, cells in 96-well plates were rinsed briefly in PBS and incubated in the 0.2 mM glutamine. Glutamine-free DMEM medium was supplemented with 0.2 mM glutamine in the presence of 10% dialyzed FBS and 25 mM HEPES. For glucose-deprivation assays, cells in 96-well plates were rinsed briefly in PBS and incubated in the 0.5 mM glucose. Glucose-free DMEM medium was supplemented with 0.5 mM glucose in the presence of 10% dialyzed FBS and 25 mM HEPES. For some conditions, the medium was supplemented with a final concentration of 2% BSA (Fraction V, fatty-acid-, nuclease and protease-free, Calbiochem). For all experiments, media were replaced every 24 hrs. Viable cell counts were obtained using CCK-8 assay described as above.

[3] = tested on: 1444 primary human PDAC cells; experiment: Cell viability assay (CCK-8); type: cell-based
Experimental: as §2

[4] = tested on: parental and IKKα KO MIA PaCa-2 tumors; experiment: Heterotopic s.c. xenografts in nude mice; type: in vivo, mouse
Experimental: as §1, with “To evaluate the combination effects of autophagy and MP inhibition on tumor growth, C57BL/6 mice were injected s.c. at 7 weeks of age with 10^7 KC6141 cells in a total volume of 100 μl. Mice were treated with vehicle, EIPA (7.5 mg/kg), MRT68921 (10 mg/kg, MCE), or EIPA and MRT68921 for 21 days when tumors attained an average volume of 100 mm^3.” left out
In some embodiments, to evaluate the effects of MP on tumor growth or survival in the autochthonous model, Kras^G12D;Ikkα^ΔPEC mice, at 4 weeks of age, were treated with vehicle or 10 mg/kg EIPA (Sigma) by i.p. injection every other day for 1 month. […] Volumes (1/2×(width^2×length)) of s.c. tumors were calculated on the basis of measurements using digital calipers after 15 days of treatment. […] Tumor volumes were calculated as above.

[5] = 10 mg/kg EIPA for 1 month vs vehicle

In the case of CCN(c1nc(N)c(C(=O)N=C(N)N)nc1Cl)C(C)C [EIPA, 5-(N-ethyl-N-isopropyl) amiloride], the “residual cancer tissue (histological analysis)” value ([1]; 10 mg/kg EIPA for 1 month) was “very little residual cancer tissue; also recorded: little residual cancer tissue”, the “IHC: acinar cell loss (amylase up, CK19 and SOX9 down)” value [1, 5] was “prevented acinar cell loss” and the “MP in TMR-DEX injected pancreata” value [1, 5] was “decreased MP”. For the same molecule, the “histology (H&E): ADM, advanced PanIN formation, normal parenchyma” value [1, 5] was “inhibited acinar-to-ductal metaplasia (ADM) and advanced pancreatic intraepithelial neoplasia (PanIN) formation, and preserved the normal pancreatic parenchyma”, the “pancreatic weight (a measure of tumor growth)” value ([1]; 10 mg/kg EIPA i.p. every other day for 1 month, from 1 month of age, vs vehicle) was “markedly reduced; also recorded: significantly reduced” and the “survival (Kaplan-Meier)” value ([1]; 10 mg/kg EIPA vs vehicle, n=12) was “substantially extended; also recorded: enhanced the percent survival rate”. For the same molecule, the “sensitivity to single agent (cell viability)” value [2] was “very sensitive”, the “sensitivity of IKKα^Δ and ATG7^Δ cells to EIPA (CCK-8)” value ([3]; IKKα^Δ / ATG7^Δ 1444 cells (functional TP53)) was “highly sensitive” and the “cell viability (total viable cells relative to day 0)” value ([3]; WT, IKKα^Δ and ATG7^Δ 1444 cells, complete medium, EIPA 10.5 μM, days 0-4) was “suppression of cell viability”. The “growth of IKKα-deficient tumors / their EIPA sensitivity vs parental” value ([4]; IKKα KO (IKKα^Δ) MIA PaCa-2 tumors, EIPA 7.5 mg/kg for 15 days) was “strongly inhibited; also recorded: more EIPA sensitive” and the tumor size ([4]; parental and IKKα KO MIA PaCa-2 tumors, EIPA 7.5 mg/kg for 15 days vs vehicle) was “reduced tumor size in both groups; also recorded: significantly suppressed”.
